Experimental data reported in patent publication US20250011330A1, “Imidazo[1,2- a]pyrazine and Imidazo[1,2- a]pyridine Based Tyrosyl-DNA Phosphodiesterase I (TDP1) Inhibitors” (The USA, As Represented by the Secretary, Department of …, priority 2021, published 2025).
Read-outs that look alike come from different tables or passages of the source.

Key:
TDP1 = TDP1 (Homo sapiens (Human), UniProt Q9NUW8); assay: TDP1 gel-based in vitro fluorescence assay; type: biochemical; conditions: for FC (fold change): Table 7, ratio of IC50 TDP2 to TDP1
Chain of TDP1 (Q9NUW8 whole entry): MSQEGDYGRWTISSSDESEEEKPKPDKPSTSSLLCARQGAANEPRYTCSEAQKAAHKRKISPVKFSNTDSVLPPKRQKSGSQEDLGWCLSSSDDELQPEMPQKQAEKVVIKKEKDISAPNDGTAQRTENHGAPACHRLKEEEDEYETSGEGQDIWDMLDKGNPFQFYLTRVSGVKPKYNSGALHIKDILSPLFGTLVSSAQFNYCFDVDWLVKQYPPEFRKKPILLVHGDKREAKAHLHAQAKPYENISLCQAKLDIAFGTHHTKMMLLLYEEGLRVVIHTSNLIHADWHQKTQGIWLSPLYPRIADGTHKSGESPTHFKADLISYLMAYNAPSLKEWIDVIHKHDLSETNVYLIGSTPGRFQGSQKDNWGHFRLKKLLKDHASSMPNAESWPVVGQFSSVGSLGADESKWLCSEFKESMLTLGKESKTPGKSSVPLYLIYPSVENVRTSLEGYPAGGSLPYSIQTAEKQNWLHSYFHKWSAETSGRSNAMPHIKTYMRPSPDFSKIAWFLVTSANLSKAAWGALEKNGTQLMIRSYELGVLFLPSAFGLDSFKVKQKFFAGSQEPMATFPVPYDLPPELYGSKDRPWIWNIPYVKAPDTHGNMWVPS
Description: (§1) (TDP assay buffer: 50 mM Tris HCl, pH 7.5, 80 mM KCl, 2 mM EDTA, 1 mM DTT, 40 μg/ml BSA and 0.01% Tween-20. TDP1 (20 mg/mL in 25 mM Tris-HCl pH 7.2, 150 mM NaCl, 2 mM tris(2-carboxyethyl)phosphine) with 2 mL of well solution composed of 0.1 M MOPS/HEPES pH 7.5, 10% (w/v) PEG 8000, 20% (v/v) ethylene glycol, 0.03 M sodium fluoride, 0.03 M sodium bromide, 0.03 M sodium iodide, 0.03 M sodium bromide and sealed over […] well solution. AF647 labelling buffer: Tris-HCl (pH 7.2, 25 mM), NaCl (150 mM), and tris(2-carboxyethyl)phosphine hydrochloride (TCEP, 2 mM).)
(§2) (DNA only: Buffer+DMSO. DMSO only: Enzyme+DMSO. Drug: Enzyme+Drug, 25° C., 10 min+DNA, reaction at 25° C., 15 min.)
Gel images were scanned using a Typhoon FLA 9500 scanner (GE Healthcare) and densitometric analyses were performed using the ImageQuant software (GE Healthcare). The IC50 of TDP1 inhibitors was calculated by comparing the percentage of cleavage product (5′Cy5-[…]-p-3′) to DMSO control.

TDP2 = TDP2 (Homo sapiens (Human), UniProt O95551); assay: gel-based TDP2 fluorescence assay in vitro; type: biochemical; conditions: read-out: TDP2 IC50
Chain of TDP2 (O95551 whole entry, species assumed): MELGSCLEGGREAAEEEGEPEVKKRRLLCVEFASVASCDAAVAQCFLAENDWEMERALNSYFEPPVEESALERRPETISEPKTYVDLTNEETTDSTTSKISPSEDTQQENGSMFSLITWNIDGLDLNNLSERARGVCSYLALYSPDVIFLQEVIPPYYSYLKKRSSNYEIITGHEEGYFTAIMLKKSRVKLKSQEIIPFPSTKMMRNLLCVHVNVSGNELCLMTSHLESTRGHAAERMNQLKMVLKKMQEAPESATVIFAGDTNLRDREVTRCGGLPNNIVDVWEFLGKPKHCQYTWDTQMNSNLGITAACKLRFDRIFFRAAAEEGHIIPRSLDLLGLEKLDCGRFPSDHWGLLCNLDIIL
Description: as §1, §2

[1] = Table 10, PROTACs, read-out: TDP1 IC50
[2] = Table 7, HPLC-purified oxime leads
[3] = Table 9, fluorosulfates and sulfonyl fluorides, read-out: TDP1 IC50
[4] = Table 9, fluorosulfates and sulfonyl fluorides
[5] = Table 1, imidazo[1,2-a]pyridin-3-amines, read-out: IC50
[6] = Table 2, imidazo[1,2-a]pyrazin-3-amine core, read-out: IC50

Cc1ncsc1-c1ccc(CNC(=O)[C@@H]2C[C@@H](O)CN2C(=O)[C@@H](NC(=O)COCCOCCOCCOCCn2cc(-c3ccn4c(Nc5ccc(C(=O)O)cc5)c(-c5ccccc5)nc4c3)nn2)C(C)(C)C)cc1 [XZ684, 4-((7-(1-((S)-16-((2S,4R)-4-Hydroxy-2-((4-(4-methylthiazol-5-yl)benzyl)carbamoyl)pyrrolidine-1-carbonyl)-17,17-dimethyl-14-oxo-3,6,9,12-tetraoxa-15-azaoctadecyl)-1H-1,2,3-triazol-4-yl)-2-phenylimidazo[1,2-a]pyridin-3-yl)amino)benzoic acid]
IC50 (TDP1; [1]): > 100 µM
IC50 (TDP2; Table 10, PROTACs): > 100 µM

O=C1CCC(N2C(=O)c3cccc(OCCOCCOCc4cn(Cc5ccc(-c6nc7cc(-c8ccccc8)ccn7c6Nc6ccc(C(=O)O)cc6)cc5)nn4)c3C2=O)C(=O)N1 (stereo not drawn) [XZ743, 4-((2-(4-((4-((2-(2-((2-(2,6-Dioxopiperidin-3-yl)-1,3-dioxoisoindolin-4-yl)oxy)ethoxy)ethoxy)methyl)-1H-1,2,3-triazol-1-yl)methyl)phenyl)-7-phenylimidazo[1,2-a]pyridin-3-yl)amino)benzoic acid]
IC50 (TDP1; [1]): > 100 µM
IC50 (TDP2; Table 10, PROTACs): > 100 µM

Cc1ncsc1-c1ccc(CNC(=O)[C@@H]2C[C@@H](O)CN2C(=O)[C@@H](NC(=O)COCCOCCn2cc(-c3ccn4c(Nc5ccc(C(=O)O)cc5)c(-c5ccccc5)nc4c3)nn2)C(C)(C)C)cc1 [XZ682, 4-((7-(1-(2-(2-(2-(((S)-1-((2S,4R)-4-Hydroxy-2-((4-(4-methylthiazol-5-yl)benzyl)carbamoyl)pyrrolidin-1-yl)-3,3-dimethyl-1-oxobutan-2-yl)amino)-2-oxoethoxy)ethoxy)ethyl)-1H-1,2,3-triazol-4-yl)-2-phenylimidazo[1,2-a]pyridin-3-yl)amino)benzoic acid]
IC50 (TDP1; [1]): > 100 µM
IC50 (TDP2; Table 10, PROTACs): > 100 µM

Cc1cncc(Oc2ccc(/C=N\OCc3ccc4nc(-c5ccccc5)c(Nc5ccc(C(=O)O)cc5)n4c3)cc2)n1 [XZ713, (Z)-4-((6-((((4-((6-Methylpyrazin-2-yl)oxy)benzylidene)amino)oxy)methyl)-2-phenylimidazo[1,2-a]pyridin-3-yl)amino)benzoic acid]
IC50 (TDP2; [2]): > 100 µM

O=C(O)c1ccc(Nc2c(-c3ccc(OS(=O)(=O)F)cc3)nc3cc(-c4ccccc4)ccn23)cc1 [XZ728, 4-((2-(4-((Fluorosulfonyl)oxy)phenyl)-7-phenylimidazo[1,2-a]pyridin-3-yl)amino)benzoic acid]
IC50 (TDP1; [3]): > 100 µM
IC50 (TDP2; [4]): > 100 µM

O=C(O)c1ccc(Nc2c(-c3ccc(CO/N=C\c4ccc(N5CCCC5=O)cc4)cc3)nc3cc(-c4ccccc4)ccn23)cc1 [XZ710, (Z)-4-((2-(4-((((4-(2-Oxopyrrolidin-1-yl)benzylidene)amino)oxy)methyl)phenyl)-7-phenylimidazo[1,2-a]pyridin-3-yl)amino)benzoic acid]
FC (fold change) (TDP1): >13
IC50 (TDP2; [2]): > 100 µM

N#Cc1ccc(-c2ccc(/C=N\OCc3ccc4nc(-c5ccccc5)c(Nc5ccc(C(=O)O)cc5)n4c3)cc2)nc1 [XZ717, (Z)-4-((6-((((4-(5-Cyanopyridin-2-yl)benzylidene)amino)oxy)methyl)-2-phenylimidazo[1,2-a]pyridin-3-yl)amino)benzoic acid]
IC50 (TDP1; Table 7, HPLC-purified oxime leads, read-out: TDP1 IC50): 50.3 ± 10.7 µM
FC (fold change) (TDP1): >2
IC50 (TDP2; [2]): > 100 µM

Cc1ncsc1-c1ccc(CNC(=O)[C@@H]2C[C@@H](O)CN2C(=O)[C@@H](NC(=O)COCCOCCOCCOCCn2cc(COc3ccc(-c4nc5cc(-c6ccccc6)ccn5c4Nc4ccc(C(=O)O)cc4)cc3)nn2)C(C)(C)C)cc1 [XZ681, 4-((2-(4-((1-((S)-16-((2S,4R)-4-Hydroxy-2-((4-(4-methylthiazol-5-yl)benzyl)carbamoyl)pyrrolidine-1-carbonyl)-17,17-dimethyl-14-oxo-3,6,9,12-tetraoxa-15-azaoctadecyl)-1H-1,2,3-triazol-4-yl)methoxy)phenyl)-7-phenylimidazo[1,2-a]pyridin-3-yl)amino)benzoic acid]
IC50 (TDP1; [1]): > 100 µM
IC50 (TDP2; Table 10, PROTACs): > 100 µM

O=C(O)c1ccc(Nc2c(-c3cccc(OS(=O)(=O)F)c3)nc3cc(-c4ccccc4)ccn23)cc1 [XZ729, 4-((2-(3-((Fluorosulfonyl)oxy)phenyl)-7-phenylimidazo[1,2-a]pyridin-3-yl)amino)benzoic acid]
IC50 (TDP1; [3]): > 100 µM
IC50 (TDP2; [4]): > 100 µM

O=C(O)c1ccc(Nc2c(-c3ccc(CO/N=C\c4ccc(-c5ccccc5)cc4)cc3)nc3cc(-c4ccccc4)ccn23)cc1 [XZ712, (Z)-4-((2-(4-(((([1,1′-Biphenyl]-4-ylmethylene)amino)oxy)methyl)phenyl)-7-phenylimidazo[1,2-a]pyridin-3-yl)amino)benzoic acid]
FC (fold change) (TDP1): >2
IC50 (TDP2; [2]): > 100 µM

Cc1cncc(Oc2ccc(/C=N/OCc3ccc(-c4nc5cc(-c6ccccc6)ccn5c4Nc4ccc(C(=O)O)cc4)cc3)cc2)n1 [XZ704, (E)-4-((2-(4-((((4-((6-methylpyrazin-2-yl)oxy)benzylidene)amino)oxy)methyl)phenyl)-7-phenylimidazo[1,2-a]pyridin-3-yl)amino)benzoic acid]
FC (fold change) (TDP1): >1
IC50 (TDP2; [2]): > 100 µM

O=C(O)c1ccc(Nc2c(-c3ccc(CO/N=C/c4ccc(-c5ccccc5)cc4)cc3)nc3cc(-c4ccccc4)ccn23)cc1 [XZ705, (E)-4-((2-(4-(((([1,1′-Biphenyl]-4-ylmethylene)amino)oxy)methyl)phenyl)-7-phenylimidazo[1,2-a]pyridin-3-yl)amino)benzoic acid]
FC (fold change) (TDP1): >2
IC50 (TDP2; [2]): > 100 µM

O=C(COc1cccc2c1C(=O)N(C1CCC(=O)NC1=O)C2=O)NCCCCn1cc(COc2ccc(-c3nc4cc(-c5ccccc5)ccn4c3Nc3ccc(C(=O)O)cc3)cc2)nn1 (stereo not drawn) [XZ686, 4-((2-(4-((1-(4-(2-((2-(2,6-Dioxopiperidin-3-yl)-1,3-dioxoisoindolin-4-yl)oxy)acetamido)butyl)-1H-1,2,3-triazol-4-yl)methoxy)phenyl)-7-phenylimidazo[1,2-a]pyridin-3-yl)amino)benzoic acid]
IC50 (TDP1; [1]): > 100 µM
IC50 (TDP2; Table 10, PROTACs): > 100 µM

O=C1CCC(N2C(=O)c3cccc(NCCc4cn(Cc5ccc(-c6nc7cc(-c8ccccc8)ccn7c6Nc6ccc(C(=O)O)cc6)cc5)nn4)c3C2=O)C(=O)N1 (stereo not drawn) [XZ749, 4-((2-(4-((4-(2-((2-(2,6-Dioxopiperidin-3-yl)-1,3-dioxoisoindolin-4-yl)amino)ethyl)-1H-1,2,3-triazol-1-yl)methyl)phenyl)-7-phenylimidazo[1,2-a]pyridin-3-V)amino)benzoic acid]
IC50 (TDP1; [1]): 12.3 ± 1.5 µM
IC50 (TDP2; Table 10, PROTACs): 16.8 ± 0.3 µM

O=C(O)c1ccc(Nc2c(-c3ccc([N+](=O)[O-])cc3)nc3ccccn23)cc1 [Compound 8e, 4-((2-(4-Nitrophenyl)imidazo[1,2-a]pyridin-3-yl)amino)benzoic acid]
IC50 (TDP1; [5]): 3.2 µM

O=C(O)c1ccc(Nc2c(-c3ccc(CO/N=C\c4ccc(-c5cnccn5)cc4)cc3)nc3cc(-c4ccccc4)ccn23)cc1 [XZ709, (Z)-4-((7-Phenyl-2-(4-((((4-(pyrazin-2-yl)benzylidene)amino)oxy)methyl)phenyl)imidazo[1,2-a]pyridin-3-yl)amino)benzoic acid]
FC (fold change) (TDP1): >2
IC50 (TDP2; [2]): > 100 µM

O=C(O)c1ccc(Nc2c(-c3cccc(Br)c3)nc3cnccn23)cc1 [Compound 7y]
IC50 (TDP1; [6]): > 1000 µM

O=C(O)c1ccc(Nc2c(-c3ccc(C(=O)O)cc3)nc3ccccn23)cc1 [Compound 8h, 4-(3-((4-Carboxyphenyl)amino)imidazo[1,2-a]pyridin-2-yl)benzoic acid]
IC50 (TDP1; [5]): > 100 µM

CCOC(=O)c1ccc(Nc2c(-c3ccccc3O)nc3cnccn23)cc1 [Compound 7a]
IC50 (TDP1; [6]): > 1000 µM

O=C(O)c1ccc(Nc2c(-c3ccc(O)cc3)nc3cnccn23)cc1 [Compound 7e]
IC50 (TDP1; [6]): 20 µM

O=C(O)c1ccc(Nc2c(-c3ccc(O)cc3)nc3ccccn23)cc1 [Compound 8f, 4-((2-(4-Hydroxyphenyl)imidazo[1,2-a]pyridin-3-yl)amino)benzoic acid]
IC50 (TDP1; [5]): > 100 µM

CN(C)c1ccc(-c2nc3cnccn3c2Nc2ccc(C(=O)O)cc2)cc1 [Compound 7v]
IC50 (TDP1; [6]): > 1000 µM

O=C(O)c1ccc(Nc2c(-c3ccc(S(=O)(=O)O)cc3)nc3ccccn23)cc1 [Compound 8g, 4-((2-(4-Sulfophenyl)imidazo[1,2-a]pyridin-3-yl)amino)benzoic acid]
IC50 (TDP1; [5]): > 100 µM

COC(=O)c1ccccc1Nc1c(-c2ccccc2O)nc2cnccn12 [Compound 7k]
IC50 (TDP1; [6]): > 1000 µM

O=C(O)c1ccc(Nc2c(-c3ccc(OCc4ccccc4)cc3)nc3ccccn23)cc1 [Compound 8c, 4-((2-(4-(Benzyloxy)phenyl)imidazo[1,2-a]pyridin-3-yl)amino)benzoic acid]
IC50 (TDP1; [5]): 12.7 µM

O=C(O)c1ccc(-c2nc3ccccn3c2Nc2ccccc2)cc1 [Compound 8i, 4-(3-(Phenylamino)imidazo[1,2-a]pyridin-2-yl)benzoic acid]
IC50 (TDP1; [5]): 40.1 µM

O=C(O)c1ccc(Nc2c(-c3ccc(C(F)(F)F)cc3)nc3ccccn23)cc1 [Compound 8d, 4-((2-(4-(Trifluoromethyl)phenyl)imidazo[1,2-a]pyridin-3-yl)amino)benzoic acid]
IC50 (TDP1; [5]): 4.2 µM
